Experimental data reported in patent US11104648B2, “Pyrazole derivative” (Zhejiang Research Institute of Chemical Industry Co., Ltd., priority 2018, dated 2021).
Read-outs that look alike come from different tables or passages of the source.

Legend:
Assay type in all cases: in vivo
[1] = tested on: Eggs of Tetranychus Cinnabarinus; assay: Activity assay of eggs of Tetranychus cinnabarinus (spray method, ovicidal); details: for pest or weed control at 5 µg/mL / pest or weed control at 2 µg/mL: Tetranychus cinnabarinus
Method: According to the solubility of the test compound, the crude drug was dissolved in N N-dimethylformamide, and then prepared into a test solution of the desired concentration with 1‰ Tween 80 aqueous solution. The content of N. N-dimethylformamide in the solution should not exceed 10%.
Spray method. The broad bean leaves with petioles were cut and inserted into a bottle with water. A certain number of female mites were placed, 24h later, adult mites were removed, and spray treatment was performed in 24 h. The experiment was repeated three times, and a blank control was set, and placed to an observation room (26±2° C., humidity 70%˜80%, 16h light per day) for culture. When the blank control group was incubated, the results were investigated. The non-incubated ones were used as death for investigation.

[2] = tested on: adult Tetranychus cinnabarinus; assay: Activity assay of adult Tetranychus cinnabarinus (whole-plant spray on bean seedlings); details: 48 h; for pest or weed control at 1.25 µg/mL: concentration 1.25 mg/L
Method: According to the solubility of the test compound, the crude drug was dissolved in N, N-dimethlfornamide, and then prepared into a test solution of the desired concentration with 1‰ Tween 80 aqueous solution. The content of N,N-dimethylformamide in the solution should not exceed 10%.
Two euphylla bean seedlings were taken, after inoculated with adult Tetranychus cinnabarinus and the base number was investigated, whole plants were sprayed with a hand-held sprayer. The experiment was repeated three times for each treatment, after treatment, placed in a standard observation room after treatment, to investigate the survival number of mites in 48 hand calculate the death rate.

[3] = tested on: Tetranychus cinnabarinus Nymphs; assay: Activity assay of Tetranychus cinnabarinus nymphs (spray on broad bean leaves)
Method: According to the solubility of the test compound, the crude drug was dissolved in N, N-dimethylformamide, and then prepared into a test solution of the desired concentration with 1‰ Tween 80 aqueous solution. The content of N,N-dimethylformamide in the solution should not exceed 10%.
The broad bean leaves with petioles were cut and inserted into a small bottle with water. A certain number of brightly colored, active female adult mites were placed, 24h later, adult mites were removed, and leaves with insufficient eggs were removed. When eggs were hatched and grew into nymphs, spray treatment was performed. The experiment was repeated three times, and a blank control was set, and placed to an observation room (26±2° C., humidity 70%˜80%, 16h light per day) for culture. 48 h later, the results were investigated. The nymphs were gently touched during investigation, and if no response, they were regarded as deaths.

[4] = concentration 5 mg/L, spray, non-incubated eggs counted as dead, read-out: ovicidal activity
[5] = concentration 2.5 mg/L, read-out: adult mite-killing activity
[6] = 48 h, concentration 2.5 mg/L, read-out: nymph-killing activity
[7] = concentration 2 mg/L, spray, read-out: ovicidal activity
[8] = eggs, concentration 2 mg/L, parallel determination, read-out: Death rate (%)
[9] = adult mites, parallel determination, read-out: Death rate (%)
[10] = read-out: adult mite-killing activity
[11] = 48 h, concentration 0.5 mg/L, read-out: nymph-killing activity
[12] = 48 h, nymphs, concentration 0.5 mg/L, parallel determination, read-out: Death rate (%)

SMILES	pest or weed control at 5 µg/mL [1, 4]	pest or weed control at 2.5 µg/mL [2, 5]	pest or weed control at 2.5 µg/mL [3, 6]	other results
COC(=O)OC(C)O/C(=C(/C#N)c1ccc(C(C)(C)C)cc1)c1c(Cl)c(C)nn1C (racemic) [Compound 675]	–	–	–	Death rate (%) ([1]; eggs, concentration 2 mg/L, parallel determination): 100%
CC(=O)OCO/C(=C(/C#N)c1ccc(C(C)(C)C)cc1)c1cc(C)nn1C [Compound 1]	≥ 90%	≥ 90%	≥ 95%	–
CCC(=O)OCO/C(=C(/C#N)c1ccc(C(C)(C)C)cc1)c1cc(C)nn1C [Compound 2]	≥ 90%	≥ 90%	≥ 95%	–
CCCC(=O)OCO/C(=C(/C#N)c1ccc(C(C)(C)C)cc1)c1cc(C)nn1C [Compound 3]	≥ 90%	≥ 90%	≥ 95%	–
Cc1cc(/C(OCOC(=O)C(C)C)=C(\C#N)c2ccc(C(C)(C)C)cc2)n(C)n1 [Compound 4]	≥ 90%	≥ 90%	≥ 95%	–
Cc1cc(/C(OCOC(=O)C(C)(C)C)=C(\C#N)c2ccc(C(C)(C)C)cc2)n(C)n1 [Compound 5]	≥ 90%	≥ 90%	≥ 95%	–
CCCCC(=O)OCO/C(=C(/C#N)c1ccc(C(C)(C)C)cc1)c1cc(C)nn1C [Compound 6]	≥ 90%	≥ 90%	≥ 95%	–
Cc1cc(/C(OCOC(=O)CC(C)C)=C(\C#N)c2ccc(C(C)(C)C)cc2)n(C)n1 [Compound 7]	≥ 90%	≥ 90%	≥ 95%	–
CC(C)(C)C(=O)OCOC(=C(C#N)c1ccc(C(C)(C)C)cc1)c1ccccc1C(F)(F)F [Compound 8-1, reference compound]	< 30%	< 80%	< 80%	pest or weed control at 2 µg/mL [1, 7]: 0%; pest or weed control at 2 µg/mL [1, 8]: 0%; pest or weed control at 1.25 µg/mL [2, 9]: 45%; pest or weed control at 1.25 µg/mL [2, 10]: < 50%; pest or weed control at 0.5 µg/mL [3, 11]: < 30%; pest or weed control at 0.5 µg/mL [3, 12]: 25%
CC(=O)OCOC(=C(C#N)c1ccc(C(C)(C)C)cc1)c1ccccc1C(F)(F)F [Compound 8-2, reference compound]	< 30%	< 80%	< 80%	pest or weed control at 2 µg/mL [1, 7]: 0%; pest or weed control at 2 µg/mL [1, 8]: 0%; pest or weed control at 1.25 µg/mL [2, 9]: 30%; pest or weed control at 1.25 µg/mL [2, 10]: < 50%; pest or weed control at 0.5 µg/mL [3, 11]: < 30%; pest or weed control at 0.5 µg/mL [3, 12]: 0%
CCCC(=O)OC(C)OC(=C(C#N)c1ccc(C(C)(C)C)cc1)c1ccccc1C(F)(F)F (stereo not shown) [Compound 8-3, reference compound]	< 30%	< 80%	< 80%	pest or weed control at 2 µg/mL [1, 7]: 0%; pest or weed control at 2 µg/mL [1, 8]: 0%; pest or weed control at 1.25 µg/mL [2, 9]: 45%; pest or weed control at 1.25 µg/mL [2, 10]: < 50%; pest or weed control at 0.5 µg/mL [3, 11]: < 30%; pest or weed control at 0.5 µg/mL [3, 12]: 30%
CCCC(=O)OCOC(=C(C#N)c1ccc(C(C)(C)C)cc1)c1ccccc1C(F)(F)F [Compound 8-4, reference compound]	< 30%	< 80%	< 80%	pest or weed control at 2 µg/mL [1, 7]: 0%; pest or weed control at 2 µg/mL [1, 8]: 0%; pest or weed control at 1.25 µg/mL [2, 9]: 50%; pest or weed control at 1.25 µg/mL [2, 10]: < 50%; pest or weed control at 0.5 µg/mL [3, 11]: < 30%; pest or weed control at 0.5 µg/mL [3, 12]: 15%
COCC(=O)OCO/C(=C(/C#N)c1ccc(C(C)(C)C)cc1)c1cc(C)nn1C [Compound 8]	≥ 90%	≥ 90%	≥ 95%	–
Cc1cc(/C(OCOC(=O)C2CC2)=C(\C#N)c2ccc(C(C)(C)C)cc2)n(C)n1 [Compound 9]	≥ 90%	≥ 90%	≥ 95%	–
CSCC(=O)OCO/C(=C(/C#N)c1ccc(C(C)(C)C)cc1)c1cc(C)nn1C [Compound 10]	≥ 90%	≥ 90%	≥ 95%	–
Cc1cc(/C(OCOC(=O)C2CCCCC2)=C(\C#N)c2ccc(C(C)(C)C)cc2)n(C)n1 [Compound 11]	≥ 90%	≥ 90%	≥ 95%	–
Cc1cc(/C(OCOC(=O)CF)=C(\C#N)c2ccc(C(C)(C)C)cc2)n(C)n1 [Compound 12]	–	–	–	pest or weed control at 5 µg/mL ([1]; read-out: ovicidal activity): ≥ 90%; pest or weed control at 2.5 µg/mL [2, 10]: ≥ 90%; pest or weed control at 2.5 µg/mL ([3]; 48 h, read-out: nymph-killing activity): ≥ 95%
Cc1cc(/C(OCOC(=O)C(F)(F)F)=C(\C#N)c2ccc(C(C)(C)C)cc2)n(C)n1 [Compound 13]	≥ 90%	≥ 90%	≥ 95%	–
Cc1cc(/C(OCOC(=O)c2ccccc2)=C(\C#N)c2ccc(C(C)(C)C)cc2)n(C)n1 [Compound 14]	≥ 90%	≥ 90%	≥ 95%	–
Cc1cc(/C(OCOC(=O)Cc2ccccc2)=C(\C#N)c2ccc(C(C)(C)C)cc2)n(C)n1 [Compound 15]	≥ 90%	≥ 90%	–	pest or weed control at 2.5 µg/mL ([3]; concentration 2.5 mg/L, 48 h, read-out: nymph-killing activity): ≥ 95%
CCC(C)(C)C(=O)OCO/C(=C(/C#N)c1ccc(C(C)(C)C)cc1)c1cc(C)nn1C [Compound 16]	≥ 90%	≥ 90%	≥ 95%	–
C=CC(=O)OCO/C(=C(/C#N)c1ccc(C(C)(C)C)cc1)c1cc(C)nn1C [Compound 17]	≥ 90%	≥ 90%	≥ 95%	–
CC(=O)OC(C)O/C(=C(/C#N)c1ccc(C(C)(C)C)cc1)c1cc(C)nn1C (stereo not shown) [Compound 26]	≥ 90%	≥ 90%	≥ 95%	–
CCC(=O)OC(C)O/C(=C(/C#N)c1ccc(C(C)(C)C)cc1)c1cc(C)nn1C (stereo not shown) [Compound 27]	≥ 90%	≥ 90%	≥ 95%	–
CCCC(=O)OC(C)O/C(=C(/C#N)c1ccc(C(C)(C)C)cc1)c1cc(C)nn1C (stereo not shown) [Compound 28]	≥ 90%	≥ 90%	≥ 95%	–
Cc1cc(/C(OC(C)OC(=O)C(C)C)=C(\C#N)c2ccc(C(C)(C)C)cc2)n(C)n1 (stereo not shown) [Compound 29]	≥ 90%	≥ 90%	≥ 95%	–
Cc1cc(/C(OC(C)OC(=O)C(C)(C)C)=C(\C#N)c2ccc(C(C)(C)C)cc2)n(C)n1 (stereo not shown) [Compound 30]	≥ 90%	≥ 90%	≥ 95%	–
CCCCC(=O)OC(C)O/C(=C(/C#N)c1ccc(C(C)(C)C)cc1)c1cc(C)nn1C (stereo not shown) [Compound 31]	≥ 90%	≥ 90%	≥ 95%	–
Cc1cc(/C(OC(C)OC(=O)CC(C)C)=C(\C#N)c2ccc(C(C)(C)C)cc2)n(C)n1 (stereo not shown) [Compound 32]	≥ 90%	≥ 90%	≥ 95%	–
COCC(=O)OC(C)O/C(=C(/C#N)c1ccc(C(C)(C)C)cc1)c1cc(C)nn1C (stereo not shown) [Compound 33]	≥ 90%	≥ 90%	≥ 95%	–
